# From the supplement of paper PMC10307832
# Columns and labels:
# Assay in all cases: relative viability (nuclei count vs DMSO), 5 days (fraction); higher = more cells survive
# [1] = compound: NCC(=O)Nc1ccc(-n2nc(C(F)(F)F)cc2-c2ccc3c(ccc4ccccc43)c2)cc1 + CC(=O)Nc1cccc(-n2c(=O)n(C3CC3)c(=O)c3c(Nc4ccc(I)cc4F)n(C)c(=O)c(C)c32)c1 [Trametinib] (partner 0.02 µM)
# How it was run: (§1)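 Values are medians from duplicate plates. Each reflects relative viability, defined as the nuclei count of treated wells over that of vehicle wells. Lung cancer cell lines in 1536-well plates were pin-tool dosed one day after seeding with one drug alone or with a fixed anchor-drug dose plus five library-drug doses (not always all listed) in √10 steps, then fixed, stained and imaged at 4× after 5 days.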
# [2] = compound: C1CSC2=C(C(=O)N1)SC3=C2C=C(C=C3)O [kb NB 142-70] + Nc1nc2[nH]cc(CCc3ccc(C(=O)N[C@@H](CCC(=O)O)C(=O)O)cc3)c2c(=O)[nH]1 [Pemetrexed] (partner 0.2 µM)
# How it was run: as §1
# [3] = compound: C1CSC2=C(C(=O)N1)SC3=C2C=C(C=C3)O [kb NB 142-70] + Cc1cc(Nc2cc(N3CCN(C)CC3)nc(Sc3ccc(NC(=O)C4CC4)cc3)n2)n[nH]1 [Tozasertib] (partner 0.1 µM)
# How it was run: as §1
# [4] = compound: C1CSC2=C(C(=O)N1)SC3=C2C=C(C=C3)O [kb NB 142-70] + Nc1ncn([C@H]2C[C@H](O)[C@@H](CO)O2)c(=O)n1 [Decitabine] (partner 2 µM)
# How it was run: as §1
# [5] = compound: NCC(=O)Nc1ccc(-n2nc(C(F)(F)F)cc2-c2ccc3c(ccc4ccccc43)c2)cc1 + NC(=O)Nc1cc(-c2cccc(F)c2)sc1C(=O)N[C@H]1CCCNC1 [AZD7762] (partner 0.2 µM)
# How it was run: as §1
Cell Line,relative viability ([1]; first compound 0.02 µM),relative viability ([1]; first compound 0.06325 µM),relative viability ([1]; first compound 0.2 µM),relative viability ([1]; first compound 0.6325 µM),relative viability ([1]; first compound 2 µM),relative viability ([2]; first compound 0.1 µM),relative viability ([2]; first compound 1 µM),relative viability ([2]; first compound 3.162 µM),relative viability ([3]; first compound 0.1 µM),relative viability ([3]; first compound 1 µM),relative viability ([3]; first compound 3.162 µM),relative viability ([4]; first compound 0.1 µM),relative viability ([4]; first compound 1 µM),relative viability ([4]; first compound 3.162 µM),relative viability ([5]; first compound 0.02 µM),relative viability ([5]; first compound 0.06325 µM),relative viability ([5]; first compound 0.2 µM),relative viability ([5]; first compound 0.6325 µM),relative viability ([5]; first compound 2 µM)
NCI-H3122,0.204,0.245,0.188,0.232,0.261,0.2,0.21,0.289,0.366,0.459,0.165,0.487,0.371,0.419,0.897,0.983,1,1.01,0.969
PC-3 [JPC-3],0.701,0.776,0.715,0.71,0.775,1.11,1,0.559,0.923,0.94,0.773,0.831,0.833,0.871,0.792,0.873,0.85,0.88,0.832
PC-14,0.861,0.704,,0.625,0.608,0.134,0.148,0.139,0.569,0.612,0.531,0.187,0.284,0.193,0.419,0.367,0.36,0.328,0.381
RERF-LC-KJ,0.89,0.839,0.847,0.843,0.848,0.461,0.477,0.417,0.445,0.486,0.445,0.681,0.664,0.482,0.959,0.863,0.996,1.12,1.03
SW 900,0.889,1.04,1,0.736,0.78,0.451,0.523,0.468,0.608,0.472,0.407,0.473,0.4,0.418,0.635,0.558,0.701,0.659,0.655
